Activity calls are given as the source filed them.
Experiments:
[1] = molecular target: T1, Polyadenylate-binding protein 1 (Homo sapiens, UniProt P11940); test: MLLE binding blockers, Cy5 peptide tracer – biochemical, fluorescence polarization, Cy5-PAM2 peptide, secondary, miRNA deadenylation inhibitor project, dose response (AID 602260); assay type: functional; conditions: read-out: IC50_Mean
Genome polyprotein = Genome polyprotein (dengue virus type 2, UniProt P29990); test: flavivirus cap methylation enzyme inhibition – biochemical, confirmation dose response, primary screen (AID 588689); assay type: functional
[2] = molecular target: Glucose-6-phosphate 1-dehydrogenase (Homo sapiens, UniProt P11413); test: inhibition of Homo sapiens G6PD, dose series – biochemical, fluorescence, selectivity assay for P. falciparum G6PD inhibitor project, dose response (AID 504792); assay type: functional
Beta-arrestin-1 = Beta-arrestin-1 (Homo sapiens, UniProt P49407); test: beta-arrestin/AP2 interaction blockers, potency – biochemical, cherry pick 1, beta2-adaptin appendage, flow cytometry, dose response (AID 588783); assay type: functional
[3] = molecular target: Transitional endoplasmic reticulum ATPase (Homo sapiens, UniProt P55072, C522A); test: C522A mutant p97 ATPase inhibitors, dose response, counter-screen for p97 inhibitor project, biochemical, luminescence (AID 1544)
[4] = molecular target: T1, Polyadenylate-binding protein 1; test: MLLE domain peptide-binding blockers, IC50 – biochemical, fluorescence polarization, FITC-PAM2 peptide, dose response (AID 602259); assay type: functional; conditions: read-out: IC50_Mean
Caspase-6 = molecular target: T2, Caspase-6 (Homo sapiens, UniProt P55212); test: inhibition of CASP6 peptide cleavage – biochemical, VEID-R110 fluorescence, cherry-pick, dose response (AID 720632)
T2 sequence (P55212 whole entry): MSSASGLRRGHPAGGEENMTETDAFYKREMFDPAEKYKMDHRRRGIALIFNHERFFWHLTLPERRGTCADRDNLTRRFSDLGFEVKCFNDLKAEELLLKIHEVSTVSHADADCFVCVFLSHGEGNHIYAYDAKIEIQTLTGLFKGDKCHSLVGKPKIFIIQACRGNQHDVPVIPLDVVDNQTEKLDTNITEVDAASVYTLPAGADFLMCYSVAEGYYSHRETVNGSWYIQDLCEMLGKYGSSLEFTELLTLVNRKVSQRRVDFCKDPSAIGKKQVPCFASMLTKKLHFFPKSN

[5] = molecular target: Transitional endoplasmic reticulum ATPase (Homo sapiens, UniProt P55072); test: p97 ATPase inhibitors, dose response, biochemical (AID 1534)
[6] = Late-stage probe development counterscreen for inhibitors of the Hepatitis C Virus non-structural protein 3 helicase (NS3): luminescence-based cell-based dose response assay to determine whether compounds that inhibit replication of HCV RNA replicon are cytotoxic. [Related pubchem assays (depositor defined):AID1800, AID1830, AID1845, AID1943, AID1945, AID2172, AID2173, AID2474, AID2476]; assay type: functional
NS3 = NS3 (Hepatitis C virus, UniProt A3EZJ3); test: PubChem AID 2173; set-up: species or system Hepacivirus hominis
NIH3T3 = test: mammalian cell viability counter-check – Alamar Blue, fluconazole, dry powder, cytotoxicity control for antifungal drug resistance project, dose response (AID 488809); assay type: functional, cell-based; conditions: Mus musculus
Candida albicans [7] = test: fluconazole-resistant Candida strain growth inhibitors – CaCi-8 strain, dry powder, set 4, dose response (AID 488950); assay type: functional, organism-based
Candida albicans [8] = test: C. albicans growth inhibition with fluconazole – CaCi-2 strain, Alamar Blue, dry powder, set 4, dose response (AID 488943); assay type: functional, organism-based
Candida albicans [9] = test: antifungal activity against resistant Candida strain – CaCi-8, fluconazole, Alamar Blue, dry powder, dose response (AID 488807); assay type: functional, organism-based
CAAX prenyl protease 2 [10] = molecular target: T3, CAAX prenyl protease 2 (Saccharomyces cerevisiae S288c, UniProt Q03530); test: inhibition of Rce1p peptide cleavage – biochemical, plate reader, dry powder retest, dose response (AID 588851)
T3 sequence (Q03530 whole entry): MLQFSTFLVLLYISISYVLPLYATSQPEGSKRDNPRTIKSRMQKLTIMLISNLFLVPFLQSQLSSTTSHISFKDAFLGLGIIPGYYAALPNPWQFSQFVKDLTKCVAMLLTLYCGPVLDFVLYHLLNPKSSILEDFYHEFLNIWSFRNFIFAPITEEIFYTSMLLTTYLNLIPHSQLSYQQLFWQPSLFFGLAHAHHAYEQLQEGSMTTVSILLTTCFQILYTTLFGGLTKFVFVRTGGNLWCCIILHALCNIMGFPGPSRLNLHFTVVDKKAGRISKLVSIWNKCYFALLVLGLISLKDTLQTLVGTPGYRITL

CAAX prenyl protease 2 [11] = molecular target: T3, CAAX prenyl protease 2; assay type: biochemical
CAAX prenyl protease 2 [12] = molecular target: T4, CAAX prenyl protease 2 (Homo sapiens, UniProt Q9Y256); test: inhibition of Ras-converting CAAX protease Rce1 – biochemical, yeast membranes, quenched-peptide fluorescence, cherry-pick, dose response (AID 588849)
[13] = HEK-293T viability loss, compound-treated – cell-based, uHTS hits, cytotoxicity control for B/T-cell NF-kB inhibitor project, dose response (AID 489019); assay type: functional;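 also: IC50 reflects cytotoxicity as loss of cell viability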
Jurkat [14] = test: blockers of NF-kB activation in T cells – Jurkat, luciferase reporter, luminescence, B- and T-cell, dose response (AID 489004); assay type: functional, cell-based; conditions: Homo sapiens;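 also: NF-kB luciferase reporter Jurkat cells stimulated with PMA plus ionomycin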
[15] = molecular target: Voltage-gated inwardly rectifying potassium channel KCNH2 (Homo sapiens, UniProt Q12809); conditions: Potency;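 also: confirmatory quantitative high-throughput screen measuring inhibition of hERG channel activity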
[16] = molecular target: Nuclear receptor subfamily 0 group B member 1 (Homo sapiens, UniProt P51843); test: Luminescence-based cell-based high throughput dose response assay for inhibitors of the orphan nuclear receptor subfamily 0, group B, member 1 (DAX1; NR0B1). [Related pubchem assays (depositor defined):AID504766, AID504790]; assay type: functional
HEK293 [17] = test: cells; assay type: functional, cell-based; conditions: Homo sapiens
CAAX prenyl protease 2 [18] = molecular target: T4, CAAX prenyl protease 2; test: inhibition of Ras-converting CAAX endoprotease – biochemical, plate reader, dry powder samples, dose response (AID 588848)
Cysteine protease ATG4B = Cysteine protease ATG4B (Homo sapiens, UniProt Q9Y4P1); assay type: functional;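 also: Fluorescence-based dose-response confirmation assay measuring inhibition of ATG4B activity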
Phospholipase A2 = Phospholipase A2 (Homo sapiens, UniProt P04054); assay type: functional;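 also: confirmatory dose-response counterscreen on phospholipase A2, testing hits that came from an ultra-high-throughput screen for ATG4B inhibitors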
[19] = system: Streptococcus sp. 'group A'; test: Streptococcus pyogenes SK(-)GAS viability under kanamycin – luminescence, BacTiterGlo, confirmation, counter-screen for streptokinase expression inhibitor project, dose response (AID 1900); assay type: functional, organism-based
[20] = NIH-3T3 fibroblast cytotoxicity, dose response, cytotoxicity control, cell-based, fluorescence, Alamar Blue, secondary assay (AID 2327); assay type: functional;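 also: NIH-3T3 mouse fibroblasts cultured with fluconazole at 8 µg/mL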
HEK293 [21] = test: HEK293T cell viability loss, resazurin readout – resazurin fluorescence, cytotoxicity control for NF-kB activator project, SAR follow-up (AID 493251); assay type: functional, cell-based; conditions: Homo sapiens
Streptococcus = test: GAS UMAA2166 growth inhibition – luminescence, BacTiterGlo, counter-screen for streptokinase expression inhibitor project, dose response (AID 1915); assay type: functional, organism-based;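 also: potency for reduction of bacterial viability or growth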
HEK293 [22] = test: SAR Analysis of small molecule inhibitors of T-cell specific antigen receptor-induced NF-kB activation in a HEK-293T cell line using a luminescence assay - Set 2. [Related pubchem assays (depositor defined):AID435003, AID435012, AID489026]; assay type: functional, cell-based; conditions: Homo sapiens
Jurkat [23] = test: SAR Analysis of small molecule inhibitors of T-cell specific antigen receptor-induced NF-kB activation in a Jurkat cell line using a luminescence assay - Set 2. [Related pubchem assays (depositor defined):AID435003, AID435012, AID465]; assay type: functional, cell-based; conditions: Homo sapiens
[24] = molecular target: Serine/threonine-protein phosphatase (Candida dubliniensis (strain CD36 / CBS 7987 / NCPF 3949 / NRRLY-17841) (Yeast), UniProt B9W6M3); test: blockers of CaCl2-induced CDRE-lacZ signaling – S. cerevisiae, luminescence, secondary, dose response (AID 2388); assay type: functional, cell-based;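 also: yeast reporter cells carrying a calcineurin-responsive lacZ construct stimulated with calcium chloride; luminescent beta-galactosidase reporter signal in whole cells rather than isolated phosphatase activity; potency for inhibition where a drop in reporter signal means calcineurin blockade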
[25] = loss of viability in HepG2 cells – cell-based, CellTiter-Glo, cherry-picked, cytotoxicity control for Shn3 inhibitor project, dose response (AID 624134); assay type: functional
[26] = reduction of Shn3 3'UTR-driven luciferase in osteoblasts – cell-based, Clone20 osteoblasts, firefly luciferase, cherry-picked, dose response (AID 624132); assay type: functional;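 also: firefly luciferase luminescence from reporter carrying the Shn3 3'UTR in osteoblasts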
[27] = fluconazole-exposed Candida albicans growth modulators – fluorescence, retest, confirmation (AID 2467); assay type: functional, cell-based
[28] = NIH3T3 cell viability loss – ATP luminescence, mouse fibroblasts, counter-screen, dose response (AID 2010); assay type: functional, cell-based;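 also: cells exposed to compound for about 90 hours before reading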
[29] = non-specific 3'UTR reporter inhibition in Clone20-Shn3RL – cell-based, Renilla luciferase, cherry-picked, counter-screen for Shn3 inhibitor project, dose response (AID 624133); assay type: functional
[30] = HEK-293T viability loss after treatment – luminescence, T-cell screen hits, cytotoxicity control for TCR NF-kB inhibitor project, dose response (AID 489026); assay type: functional, cell-based;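 also: cells exposed to compound about 14 hours before the viability readout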
INS1 = test: INS-1E survival protection against cytokine death – cell-based, luminescence, retest, dose response (AID 449756); assay type: functional; conditions: Rattus norvegicus;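 also: cell death triggered by IL-1 beta plus TNF-alpha plus IFN-gamma mixture; protective hits raise ATP signal compared with cytokine alone wells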
[31] = Trypanosoma cruzi growth suppression in host cells – NIH3T3 host cells, beta-gal luminescence, confirmation (AID 2044); assay type: functional, cell-based;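 also: intracellular parasites grown in NIH/3T3 mouse fibroblasts as host cells; luminescent beta-galactosidase reporter signal from transgenic T. cruzi replicating inside host cells; inhibitors lower the luminescence signal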
cells [32] = assay type: functional, cell-based
[33] = molecular target: ATP-dependent molecular chaperone HSP82 (Candida albicans (strain WO-1) (Yeast), UniProt C4YTQ8); test: steroid-induced GRE reporter decrease in yeast – S. cerevisiae, luminescence, Hsp90 inhibitor project, dose response (AID 2400); assay type: functional, cell-based;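 also: beta-galactosidase luminescence from glucocorticoid response element reporter as proxy for Hsp90 function; inhibitor potency where signal loss means Hsp90 inhibition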
HEK293 [34] = test: EBV LMP1 TES2 canonical NF-kB signalling blockers – cell-based, HEK293, luciferase, cherry-pick, dose response (AID 588343); assay type: functional; conditions: Homo sapiens
cells [35] = assay type: functional, cell-based; remark: listed apart in the source

T4 sequence (Q9Y256 whole entry): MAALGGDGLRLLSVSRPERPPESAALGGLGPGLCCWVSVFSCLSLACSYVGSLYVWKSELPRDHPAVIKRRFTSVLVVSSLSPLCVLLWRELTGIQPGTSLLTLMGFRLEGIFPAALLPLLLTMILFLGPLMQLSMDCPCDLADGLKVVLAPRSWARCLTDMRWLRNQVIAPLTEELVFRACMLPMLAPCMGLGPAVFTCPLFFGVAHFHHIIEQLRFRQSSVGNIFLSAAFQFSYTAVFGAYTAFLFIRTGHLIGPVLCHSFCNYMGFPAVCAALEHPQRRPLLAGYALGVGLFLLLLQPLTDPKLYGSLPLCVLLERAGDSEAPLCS
T1 sequence (P11940 whole entry): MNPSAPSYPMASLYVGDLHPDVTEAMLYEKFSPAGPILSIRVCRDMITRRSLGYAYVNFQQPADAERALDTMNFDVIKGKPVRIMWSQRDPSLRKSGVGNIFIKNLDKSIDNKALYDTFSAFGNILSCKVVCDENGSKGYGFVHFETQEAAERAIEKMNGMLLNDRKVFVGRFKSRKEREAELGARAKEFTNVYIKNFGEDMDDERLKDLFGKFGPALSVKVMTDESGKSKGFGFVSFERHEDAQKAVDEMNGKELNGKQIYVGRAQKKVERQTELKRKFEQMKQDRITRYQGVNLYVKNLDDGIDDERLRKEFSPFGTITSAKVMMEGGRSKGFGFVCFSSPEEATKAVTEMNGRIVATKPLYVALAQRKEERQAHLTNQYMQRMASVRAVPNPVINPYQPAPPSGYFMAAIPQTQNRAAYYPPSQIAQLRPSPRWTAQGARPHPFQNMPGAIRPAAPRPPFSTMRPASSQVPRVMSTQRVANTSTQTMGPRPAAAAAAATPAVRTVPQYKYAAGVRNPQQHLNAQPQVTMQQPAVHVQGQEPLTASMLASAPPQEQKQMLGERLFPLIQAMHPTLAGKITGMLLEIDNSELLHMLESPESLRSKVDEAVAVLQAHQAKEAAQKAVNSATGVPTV
Chain of Transitional endoplasmic reticulum ATPase (Homo sapiens, UniProt P55072, C522A) (P55072 2-806 C522A limits assumed): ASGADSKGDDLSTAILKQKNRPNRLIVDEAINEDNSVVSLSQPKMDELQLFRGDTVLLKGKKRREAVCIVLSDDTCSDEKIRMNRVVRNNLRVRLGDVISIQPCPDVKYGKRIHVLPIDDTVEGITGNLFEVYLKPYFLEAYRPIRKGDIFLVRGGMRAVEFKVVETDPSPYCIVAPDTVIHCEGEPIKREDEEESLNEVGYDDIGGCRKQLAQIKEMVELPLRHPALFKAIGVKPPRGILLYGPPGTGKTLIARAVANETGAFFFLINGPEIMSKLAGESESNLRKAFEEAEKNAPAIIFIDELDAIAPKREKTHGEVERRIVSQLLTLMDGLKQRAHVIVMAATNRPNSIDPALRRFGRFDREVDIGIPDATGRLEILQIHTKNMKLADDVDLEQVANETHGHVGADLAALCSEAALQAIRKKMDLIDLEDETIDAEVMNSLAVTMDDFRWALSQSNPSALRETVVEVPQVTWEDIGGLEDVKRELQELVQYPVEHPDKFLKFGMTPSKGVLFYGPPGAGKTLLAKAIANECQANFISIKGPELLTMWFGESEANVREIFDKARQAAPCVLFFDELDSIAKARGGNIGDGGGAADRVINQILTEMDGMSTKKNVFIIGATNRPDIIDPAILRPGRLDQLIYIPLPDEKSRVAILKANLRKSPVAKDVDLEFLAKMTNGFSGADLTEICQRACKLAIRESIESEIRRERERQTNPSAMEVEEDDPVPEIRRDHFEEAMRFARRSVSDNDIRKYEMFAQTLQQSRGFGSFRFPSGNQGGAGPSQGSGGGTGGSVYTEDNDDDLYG
Chain of Voltage-gated inwardly rectifying potassium channel KCNH2 (Q12809 whole entry): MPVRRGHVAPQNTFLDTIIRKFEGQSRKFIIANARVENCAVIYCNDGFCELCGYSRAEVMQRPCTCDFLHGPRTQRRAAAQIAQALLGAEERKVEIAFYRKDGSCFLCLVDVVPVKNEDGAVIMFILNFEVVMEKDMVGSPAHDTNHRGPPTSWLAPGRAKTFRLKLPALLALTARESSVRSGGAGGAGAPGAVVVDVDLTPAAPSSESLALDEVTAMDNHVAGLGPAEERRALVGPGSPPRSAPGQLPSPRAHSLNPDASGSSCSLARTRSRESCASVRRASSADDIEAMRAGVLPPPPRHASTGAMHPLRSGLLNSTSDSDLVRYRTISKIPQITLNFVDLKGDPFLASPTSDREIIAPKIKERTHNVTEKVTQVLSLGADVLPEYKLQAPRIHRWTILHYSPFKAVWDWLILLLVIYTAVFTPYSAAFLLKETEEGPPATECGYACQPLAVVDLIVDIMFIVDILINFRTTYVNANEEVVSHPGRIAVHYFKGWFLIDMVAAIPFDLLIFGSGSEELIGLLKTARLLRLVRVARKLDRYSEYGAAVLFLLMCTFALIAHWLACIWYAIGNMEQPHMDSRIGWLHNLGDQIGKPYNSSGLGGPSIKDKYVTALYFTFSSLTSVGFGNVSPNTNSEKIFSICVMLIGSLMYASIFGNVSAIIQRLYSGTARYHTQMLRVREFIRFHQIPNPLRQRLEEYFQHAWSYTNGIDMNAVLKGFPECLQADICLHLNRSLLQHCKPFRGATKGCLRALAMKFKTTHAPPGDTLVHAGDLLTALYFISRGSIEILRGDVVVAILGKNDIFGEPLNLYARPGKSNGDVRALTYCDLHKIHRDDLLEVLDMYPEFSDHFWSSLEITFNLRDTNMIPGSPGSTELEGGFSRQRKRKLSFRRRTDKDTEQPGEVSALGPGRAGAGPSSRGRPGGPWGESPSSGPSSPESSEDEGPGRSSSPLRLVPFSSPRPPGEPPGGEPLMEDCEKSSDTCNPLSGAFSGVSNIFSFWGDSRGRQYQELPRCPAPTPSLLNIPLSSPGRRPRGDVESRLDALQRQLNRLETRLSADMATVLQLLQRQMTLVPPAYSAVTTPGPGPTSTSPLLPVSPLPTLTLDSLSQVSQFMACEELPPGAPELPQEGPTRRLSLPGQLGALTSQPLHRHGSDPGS
Chain of Cysteine protease ATG4B (Q9Y4P1 whole entry): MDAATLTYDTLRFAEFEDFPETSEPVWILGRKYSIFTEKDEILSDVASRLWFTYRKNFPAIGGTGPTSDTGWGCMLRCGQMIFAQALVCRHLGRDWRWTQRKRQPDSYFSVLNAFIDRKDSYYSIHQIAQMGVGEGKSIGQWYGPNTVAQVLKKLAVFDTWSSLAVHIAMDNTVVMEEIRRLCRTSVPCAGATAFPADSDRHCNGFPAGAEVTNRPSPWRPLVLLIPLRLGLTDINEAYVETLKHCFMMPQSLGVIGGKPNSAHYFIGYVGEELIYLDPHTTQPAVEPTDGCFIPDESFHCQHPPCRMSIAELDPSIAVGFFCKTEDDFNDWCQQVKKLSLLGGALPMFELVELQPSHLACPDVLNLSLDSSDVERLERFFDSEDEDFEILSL
Chain of Transitional endoplasmic reticulum ATPase (Homo sapiens, UniProt P55072) (P55072 whole entry): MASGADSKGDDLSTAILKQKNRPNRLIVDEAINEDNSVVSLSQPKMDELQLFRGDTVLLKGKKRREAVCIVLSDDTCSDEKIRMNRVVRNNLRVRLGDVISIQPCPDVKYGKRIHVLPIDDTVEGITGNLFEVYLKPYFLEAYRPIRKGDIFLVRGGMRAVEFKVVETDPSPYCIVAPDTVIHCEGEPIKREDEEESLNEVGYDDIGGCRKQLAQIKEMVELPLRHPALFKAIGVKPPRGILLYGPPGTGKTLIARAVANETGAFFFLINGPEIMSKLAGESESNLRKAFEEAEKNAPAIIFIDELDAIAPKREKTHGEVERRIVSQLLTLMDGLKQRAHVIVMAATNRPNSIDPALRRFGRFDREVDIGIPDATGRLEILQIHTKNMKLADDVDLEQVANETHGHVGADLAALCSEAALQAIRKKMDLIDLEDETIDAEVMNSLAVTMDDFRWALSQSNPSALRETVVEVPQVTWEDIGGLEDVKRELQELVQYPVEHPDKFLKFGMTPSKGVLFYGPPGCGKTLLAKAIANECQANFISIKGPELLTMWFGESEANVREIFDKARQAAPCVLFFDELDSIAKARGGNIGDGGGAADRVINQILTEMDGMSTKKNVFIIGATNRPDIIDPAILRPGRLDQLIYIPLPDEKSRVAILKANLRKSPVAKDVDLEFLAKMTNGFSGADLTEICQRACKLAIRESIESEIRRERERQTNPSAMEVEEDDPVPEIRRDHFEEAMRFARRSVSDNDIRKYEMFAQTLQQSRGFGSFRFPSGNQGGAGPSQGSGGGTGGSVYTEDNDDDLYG
Chain of Phospholipase A2 (P04054 whole entry): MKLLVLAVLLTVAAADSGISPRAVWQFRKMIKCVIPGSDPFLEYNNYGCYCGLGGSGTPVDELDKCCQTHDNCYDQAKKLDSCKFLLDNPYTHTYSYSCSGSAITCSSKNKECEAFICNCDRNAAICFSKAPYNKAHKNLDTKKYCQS
Chain of Serine/threonine-protein phosphatase (B9W6M3 whole entry): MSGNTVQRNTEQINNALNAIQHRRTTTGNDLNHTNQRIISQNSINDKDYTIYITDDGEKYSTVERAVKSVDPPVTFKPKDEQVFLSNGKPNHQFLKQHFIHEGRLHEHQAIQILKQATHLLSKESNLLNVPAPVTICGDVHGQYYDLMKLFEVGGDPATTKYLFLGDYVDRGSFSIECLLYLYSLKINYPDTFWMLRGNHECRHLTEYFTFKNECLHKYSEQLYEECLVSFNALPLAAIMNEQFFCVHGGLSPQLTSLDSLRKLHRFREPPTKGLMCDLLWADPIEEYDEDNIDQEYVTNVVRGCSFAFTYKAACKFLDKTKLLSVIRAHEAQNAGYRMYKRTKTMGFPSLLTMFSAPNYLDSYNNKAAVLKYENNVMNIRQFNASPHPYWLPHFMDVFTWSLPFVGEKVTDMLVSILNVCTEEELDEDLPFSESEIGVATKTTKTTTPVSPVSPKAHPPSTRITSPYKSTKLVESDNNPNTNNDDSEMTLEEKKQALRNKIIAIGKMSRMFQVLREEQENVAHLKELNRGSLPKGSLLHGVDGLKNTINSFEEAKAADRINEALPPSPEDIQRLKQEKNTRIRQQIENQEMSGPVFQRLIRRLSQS

SMILES: NS(=O)(=O)c1ccc(N/N=C/c2ccc(O)c(O)c2O)c([N+](=O)[O-])c1
- IC50 [1]: > 66 µM (inactive)
- IC50 (Genome polyprotein): 4.59 µM (active)
- IC50 [2]: > 80 µM (inactive)
- IC50 (Beta-arrestin-1): 11 µM (active)
- IC50 [3]: > 50 µM (not active)
- IC50 [4]: > 66 µM (inactive)
- AC50 (Caspase-6): 0.351 µM (active)
- IC50 [5]: > 50 µM (not active)

SMILES: COc1cc(C2C(C(=O)c3ccc(C)o3)=C(O)C(=O)N2c2cc(C)on2)ccc1OCc1ccccc1 (stereo not given)
- CC50 [6]: > 100 µM (inactive)
- IC50 (NS3): 2.68 µM (active)

SMILES: O=C(c1cccs1)N1CCN(c2ccnc3cc(Cl)ccc23)CC1
- AC50 (NIH3T3): 17.9 µM (active)
- AC50 (Candida albicans [7]): 2.96 µM (active)
- AC50 (Candida albicans [8]): 1.71 µM (active)
- AC50 (Candida albicans [9]): 5.31 µM (active)

SMILES: CCOc1cccc(-c2c(C(=O)N/N=C/c3cccs3)nnn2-c2nonc2N)c1
- AC50 (CAAX prenyl protease 2 [10]): 37.1 µM (active)
- AC50 (CAAX prenyl protease 2 [11]): 1.53 µM (active)
- AC50 (CAAX prenyl protease 2 [12]): 15.3 µM (active)

SMILES: C[C@H](NC(=O)c1nc[nH]c1C(=O)N[C@@H](C)C(=O)OCc1ccccc1)C(=O)OCc1ccccc1
- IC50 [13]: > 80 µM (inactive)
- IC50 (Jurkat [14]): 73.6 µM (inactive)

SMILES: NCCNC(=O)c1ncsc1-c1cccc(F)c1
- AC50 [15]: 35.5 µM (inconclusive)

SMILES: COc1cc(C(=O)O)cc(OC)c1OC [3,4,5-TRIMETHOXYBENZOIC ACID]
- IC50 [16]: > 67.5 µM (inactive)
- IC50 (HEK293 [17]): > 67.5 µM (inactive)

SMILES: CN(C)CCCN(C(=O)c1cc(-c2cccs2)nc2ccccc12)c1nc2ccc(F)cc2s1
- AC50 (CAAX prenyl protease 2 [10]): 33.6 µM (active)
- AC50 (CAAX prenyl protease 2 [18]): 49.5 µM (active)

SMILES: O=C(c1ccc(OC2CCN(C/C=C/c3ccc(F)cc3)CC2)cc1)N1CCCC1
- IC50 (Cysteine protease ATG4B): 11.8 µM (active)
- IC50 (Phospholipase A2): 7.22 µM (active)

SMILES: CCCCC(=O)NC(c1ccc(Cl)cc1Cl)c1ccc2cccnc2c1O (stereo not given)
- EC50 [19]: 1.29 µM (active)
- EC50 [20]: 13.3 µM (active)
- IC50 (HEK293 [21]): 26.8 µM (inactive)
- EC50 (Streptococcus): 2.12 µM (active)
- IC50 (HEK293 [22]): 3.23 µM (active)
- IC50 (Jurkat [23]): 3.7 µM (active)
- EC50 [24]: > 180 µM (inactive)
- AC50 [25]: > 70 µM (inactive)
- AC50 [26]: 0.67 µM (active)
- EC50 [27]: 0.698 µM (active)
- EC50 [28]: 0.57 µM (active)
- AC50 [29]: 0.861 µM (active)
- IC50 [30]: > 80 µM (inactive)
- AC50 (INS1): 0.422 µM (active)
- EC50 [31]: 0.126 µM (active)
- EC50 (cells [32]): 8.53 µM (active)
- EC50 [33]: > 150 µM (inactive)
- AC50 (HEK293 [34]): 4.57 µM (active)
- EC50 (cells [35]): > 350 µM (not active)

Source: ChEMBL document CHEMBL1201862, “PubChem BioAssay data set” (2004)
